Experimental data as given in US20050272737A1, “Combined treatment with irinotecan and an epidermal growth factor receptor kinase inhibitor” (priority 2004, published 2005).
Where two headings read alike, the source gives them in different places.

Experiments:
[1] = cited from earlier work
[2] = test system: LoVo colorectal xenograft; test: Anti-tumor efficacy in LoVo human colorectal xenograft in nude mice (study 525; also experiment 540); assay type: in vivo, female athymic nu/nu mice
Protocol: (§1) In this study, the drugs were combined at their respective maximum tolerated dose (MTD) and also combined together at sub-optimal doses. All doses included in the combination groups were also included in the study as monotherapy arms. The attempt was to achieve maximum efficacy/regression without increased toxicity.
(§2) The health of all animals was determined daily by gross observation of experimental animals and by the analyses of blood samples of sentinel animals that were housed on the shared shelf racks. All animals were allowed to acclimate and recover from any shipping related stress for one week prior to experimental manipulation. […] Cages, bedding and water bottles were autoclaved before use and were changed weekly. […] All in vivo experiments were performed in accordance with protocols approved by the Roche Animal Care and Use Committee (RACUC). The Roche animal care facility is fully accredited by the American Association for the Accreditation of Lab Animal Care (AAALAC).
LoVo cells were grown in F-12K+20% FBS (not heat inactivated) and harvested. 5×10^6 cells/0.2 ml/mouse in PBS (Phosphate Buffered Saline) were implanted subcutaneously in the right flank on Jul.
(§3) Formulated compound was made up in one batch for the entire 3 week study.
(§4) An aliquot of the stock vial solutions was taken for each dose group representing the drug needed for that group for the entire study duration and diluted out further with sterile saline, to provide a solution that renders a 0.2 ml dosing volume for each individual animal.
For study […], animals were randomized according to tumor volume on day 17 post tumor implantation so that all groups had similar starting mean tumor volumes of 100-150 mm^3.
[…] Treatment ended on Aug. […] No end of study drug exposure analysis was performed on this study.
(§5) Tumor measurements and mouse weights were taken two-three times per week for LoVo and HCT116. All animals were individually followed throughout the experiment.
(§6) Efficacy data was graphically represented as the mean tumor volume+standard error of the mean (SEM).
(§7) Tumor volume (in cubic millimeters) was calculated using the ellipsoid formula: (D×(d2))/2 • where ‘D’ represents the large diameter of the tumor, and ‘d’ represents the small diameter.
(§8) In some cases, tumor regression and/or percent change in tumor volume was calculated using the formula: ((T−T0)/T0)×100 • where ‘T’ represents mean tumor volume of the treated group at a particular day and ‘T0’ represents mean tumor volume of the same treated group at initiation of treatment.
(§9) Statistical analysis was determined by the rank sum test and One Way Anova and a post-hoc Bonferroni t-test (SigmaStat, version 2.0, Jandel Scientific, San Francisco, Calif.).

[3] = test system: HCT116 colorectal xenograft; test: Anti-tumor efficacy in HCT116 human colorectal xenograft in nude mice (study 531); assay type: in vivo, female athymic nu/nu mice; settings: for classification of the HCT116 tumor line towards the agent: therapeutic doses: Tarceva 100 mg/kg qd, Iressa 150 mg/kg
Protocol: as §1, §2
HCT-116 cells were grown in McCoy's 5A Modified Medium +10% FBS and harvested. 3×10^6 cells/0.2 ml/mouse in PBS (Phosphate Buffered Saline) were implanted subcutaneously in the right flank on Jul.
as §3, §4
(§10) Tarceva™ was administered using a 1 cc syringe and 18-gauge gavage needles (0.2 ml/animal). […] All groups were treated q4d for 3 weeks (total 6 injections). Treatment ended on Aug. […] No end of study of drug exposure analysis was performed on this study.
as §5, §6, §7, §8, §9

[4] = study 531; for toxicity and unscheduled deaths: single agent groups and low dose combination (25/15 mg/kg)
Protocol: as §2, §10
A full necropsy was performed on five mice per treatment from all remaining groups, Whole blood was also collected for hematology and clinical chemistry. Tumors were removed and fixed in zinc formalin and subsequently embedded in paraffin. Immunohistochemistry can be performed on these sections to assess apoptosis via TUNEL and proliferative index via Ki67. Necrosis can also be assessed on H&E stained sections.
as §5
Weight loss was graphically represented as percent change in mean group body weight, using the formula: ((W−W0)/W0)×100 • where ‘W’ represents mean body weight of the treated group at a particular day, and ‘W0’ represents mean body weight of the same treated group at initiation of treatment.

in vivo = test: in vivo
Protocol: The dose of 60 mg/kg was selected as the rational maximum therapeutic dose based on investigator experience with this agent.

[5] = Toxicity (body weight, deaths, clinical signs, necropsy) in LoVo study 525; assay type: in vivo, female nude mice; settings: Tarceva 100 mg/kg monotherapy
Protocol: Female nude mice (10/group), obtained from Charles River Laboratories (Wilmington, Mass.) at an age of 4-6 weeks, and were used when they were ˜10-12 weeks old and weighed ˜23-25 grams.
For efficacy study 525, treatment began on Jul. […] Treatment ended on Aug. 19, 2002 (Day 38 post-tumor implant). No end of study drug exposure analysis was performed on this study.
All animals were individually followed throughout the experiment.

[6] = test system: LoVo colorectal xenograft; test: Anti-tumor efficacy in LoVo human colorectal xenograft in nude mice (study 525; also experiment 540); assay type: in vivo, female athymic nu/nu mice; remark: listed apart in the source
[7] = Tarceva 25 mg/kg qd monotherapy, study 525, day 38

SMILES: O=c1[nH]cc(F)c(=O)[nH]1 [5-fluorouracil]
- response rate ([1]; single-agent treatment, advanced colorectal cancer): about 10%

SMILES: CCc1c2c(nc3ccc(OC(=O)N4CCC(N5CCCCC5)CC4)cc13)-c1cc3c(c(=O)n1C2)COC(=O)[C@]3(O)CC [CPT-11]
- Tumor growth inhibition (TGI) ([2]; CPT-11 15 mg/kg q4d iv monotherapy, study 525): 93%
- tumors partially regressed ([2]; CPT-11 60 mg/kg q4d iv monotherapy, study 525): 90%
- Tumor growth inhibition (TGI) ([2]; CPT-11 60 mg/kg q4d iv monotherapy, study 525, day 38): > 100%
- Tumor growth inhibition (TGI) ([3]; CPT-11 15 mg/kg q4d iv monotherapy, study 531): 73%
- tumors partially regressed ([3]; CPT-11 60 mg/kg q4d iv monotherapy, study 531): 70%
- Tumor growth inhibition (TGI) ([3]; CPT-11 60 mg/kg q4d iv monotherapy, study 531, day 35): > 100%
- toxicity and unscheduled deaths [4]: No toxicity or unscheduled deaths
- MTD at 3 weeks (in vivo; female, mouse, in vivo, iv): 66 mg/kg

SMILES: COc1cc2ncnc(Nc3ccc(F)c(Cl)c3)c2cc1OCCCN1CCOCC1 [Iressa™]
- classification of the HCT116 tumor line towards the agent [3]: refractory
- toxicity and unscheduled deaths [4]: No toxicity or unscheduled deaths

SMILES: C#Cc1cccc(Nc2ncnc3cc(OCCOC)c(OCCOC)cc23)c1 [Tarceva™, [6,7-bis(2-methoxyethoxy)-4-quinazolin-4-yl]-(3-ethynylphenyl) amine]
- Tumor growth inhibition (TGI) ([2]; Tarceva 100 mg/kg, experiment 540): 98%
- tumors partially regressed ([2]; Tarceva 100 mg/kg, experiments 525 and 540): 40-60%
- mice showing partial regressions (PR) ([2]; erlotinib 100 mg/kg, fraction of mice): 6/10
- single agent tumor efficacy / tumor growth inhibition ([3]; Tarceva 25 mg/kg qd monotherapy, study 531, day 35): not seen
- single agent tumor efficacy / tumor growth inhibition ([3]; Tarceva 25 mg/kg qd monotherapy, study 531, day 35, listed as erlotinib): did not render significant tumor growth inhibition
- single agent tumor efficacy / tumor growth inhibition ([3]; Tarceva 100 mg/kg qd monotherapy, study 531, day 35 post tumor implant): not seen
- single agent tumor efficacy / tumor growth inhibition ([3]; Tarceva 100 mg/kg qd monotherapy, study 531, day 35 post tumor implant, listed as erlotinib): did not render significant tumor growth inhibition
- classification of the HCT116 tumor line towards the agent [3]: refractory
- skin finding [5]: classic reddening of the skin
- skin finding ([4]; Tarceva 100 mg/kg monotherapy): classic reddening of the skin
- toxicity and unscheduled deaths [4]: No toxicity or unscheduled deaths
- tolerability (in vivo; Tarceva 150 mg/kg once a day in CMC/Tween for 3 weeks, previous efficacy studies): tolerated well
- tolerability (in vivo; Tarceva 200 mg/kg qd, CMC/Tween, MTD study): toxicity
- MTD at 14 days (in vivo; female, mouse, in vivo): 100 mg/kg
- tumor regression ([6]; Tarceva 25 mg/kg qd monotherapy, study 525): no regression
- % T/C [6, 7]: 21%
- Tumor growth inhibition (TGI) [6, 7]: 79%
- Tumor growth inhibition ([6]; Tarceva 25 mg/kg qd, experiments 525 and 540): 53-79%
- tumors with partial regression ([6]; Tarceva 100 mg/kg qd oral monotherapy, study 525): 60%
- % T/C ([6]; Tarceva 100 mg/kg qd oral monotherapy, study 525, day 38): −2%
- Tumor growth inhibition (TGI) ([6]; Tarceva 100 mg/kg qd oral monotherapy, study 525, day 38 post tumor implant): > 100%

SMILES: O=C(O)C(=O)O.[NH-][C@@H]1CCCC[C@H]1[NH-].[Pt+2] [oxaliplatin]
- response rate ([1]; combined with 5-FU and leucovorin, first-line treatment for colorectal cancer): 25-40%
